# In US20060293383A1, “Carbamate compounds for use in preventing or treating neuropathic pain and cluster and migraine headache-associated pain” (priority 2001, published 2006):
# Test system: Chung model of neuropathic pain
# Experiment: Antiallodynic activity in the Chung model (spinal nerve ligation), manually applied von Frey probes
# Assay type: in vivo, Sprague-Dawley rats
# Details: for % Maximum Possible Effect: 30 min after oral dosing (time of peak effect), L5 spinal nerve ligated rats, paw withdrawal threshold
# From the text: The procedure used to test the antiallodynic activity of an enantiomer of Formula (I) substantially free of other enantiomers was the procedure for the measurement of allodynia found in the Chung Model (Kim S. H. and Chung J. M., An Experimental Model for Peripheral Neuropathy Produced by Segmental Spinal Nerve Ligation in the Rat, Pain, 1992, 50, 355-363).
# Evaluation of Antiallodynic Activity (Manually Applied Von Frey Probes) Animals
# Pathogen-free, male albino Sprague-Dawley rats, 200 g, were purchased from Harlan Industries (Indianapolis, Ind.) and maintained on a 12-h light/dark cycle (lights on at 06:00 h) in a climate-controlled room with food and water available ad libitum up to the time of the testing and food withdrawn 18 hr prior to testing.
# Surgical Procedure and Measurement of Allodynia
# The rats were anesthetized with isoflurane inhalant anesthesia. The left lumbar spinal nerve at the level of L5 was tightly ligated (4-0 silk suture) distal to the dorsal root ganglion and prior to entrance into the sciatic nerve, as described by Kim and Chung. The incisions were closed and the rats were allowed to recover under conditions described above. This procedure results in mechanical allodynia in the left hind paw. The sham operation, when performed, consisted of a similar surgical procedure lacking only the final ligation of the spinal nerve. Mechanical (tactile) allodynia was assessed by recording the pressure at which the affected paw (ipsilateral to the site of nerve injury) was withdrawn from graded stimuli (von Frey filaments ranging from 4.0 to 148.1 mN) applied by hand perpendicularly to the plantar surface of the paw (between the footpads) through wire-mesh observation cages. A paw withdrawal threshold (PWT) was determined by sequentially increasing and decreasing the stimulus strength and analyzing withdrawal data using a Dixon non-parametric test, as described by Chaplan et al (Chaplan S. R., Bach F. W., Pogrel J. W., Chung J. M. and Yaksh T. L., Quantitative Assessment of Tactile Allodynia in the Rat Paw, J Neurosci Meth, 1994, 53, 55-63). […]
smiles,measurement,setting,value
NC(=O)OC[C@H](O)c1ccccc1Cl [Formula (Ib)],% Maximum Possible Effect,30 mg/kg po,11%
same,% Maximum Possible Effect,100 mg/kg po,28%
same,time of peak antiallodynic effect,"after oral dosing, 30 and 100 mg/kg",30 min
